From patent US8232288B2, “Substituted benzimidazoles, benzothiazoles and benzoxazoles” (Gruenenthal GmbH, priority 2009, dated 2012)

Key:
[1] = target: T1, human B1R receptor (hB1R) (Homo sapiens, UniProt P46663); assay: Functional investigation on the bradykinin receptor 1 (B1R), FLIPR Ca2+ assay, hB1R cells; type: cell-based
T1 construct: expressed in transfected cells; host or cells: CHO K1 cells
T1 sequence (P46663 1-353): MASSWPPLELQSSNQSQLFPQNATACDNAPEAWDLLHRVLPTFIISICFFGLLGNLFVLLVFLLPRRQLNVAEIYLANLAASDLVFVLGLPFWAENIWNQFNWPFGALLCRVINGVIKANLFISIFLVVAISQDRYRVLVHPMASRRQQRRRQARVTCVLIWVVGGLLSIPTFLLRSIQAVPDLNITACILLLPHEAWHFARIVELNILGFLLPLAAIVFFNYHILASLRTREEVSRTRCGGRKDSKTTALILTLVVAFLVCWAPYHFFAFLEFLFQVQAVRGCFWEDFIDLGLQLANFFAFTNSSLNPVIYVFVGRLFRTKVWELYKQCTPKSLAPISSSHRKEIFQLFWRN
Protocol: (§1) The agonistic or antagonistic action of substances can be quantified on the bradykinin receptor 1 (B1R) of the human and rat species with ectopically expressing cell lines (CHO K1 cells) and with the aid of a Ca^2+-sensitive dyestuff (Fluo-4) in a fluorescent imaging plate reader (FLIPR). The figure in % activation is based on the Ca^2+ signal after addition of Lys-Des-Arg^9-bradykinin (0.5 nM) or Des-Arg^9-bradykinin (100 nM). Antagonists lead to a suppression of the Ca^2+ inflow after addition of the agonist. % inhibition compared with the maximum achievable inhibition is stated.
(§2) The agonistic or antagonistic action of substances can be determined on the bradykinin receptor 1 (B1R) of the human and rat species with the following assay. In accordance with this assay, the Ca^2+ inflow through the channel is quantified with the aid of a Ca^2+-sensitive dyestuff (type Fluo-4, Molecular Probes Europe BV, Leiden Holland) in a fluorescent imaging plate reader (FLIPR, Molecular Devices, Sunnyvale, USA).
(§3) Chinese hamster ovary cells (CHO K1 cells) transfected stably with the human B1R gene (hB1R cells) or the B1R gene of the rat (rB1R cells) are used. For functional studies, these cells are plated out on black 96-well plates with a clear base (BD Biosciences, Heidelberg, Germany or Greiner, Frickenhausen, Germany) in a density of 20,000-35,000 cells/well. The cells are left overnight at 37° C. and 5% CO2 in culture medium (hB1R cells: Nutrient Mixture Ham's F12, Gibco Invitrogen GmbH, Karlsruhe, Germany or DMEM, Sigma-Aldrich, Taufkirchen, Germany; rB1R cells: D-MEM/F12, Gibco Invitrogen GmbH, Karlsruhe, Germany) with 10 vol. % FBS (foetal bovine serum, Gibco Invitrogen GmbH, Karlsruhe, Germany or PAN Biotech GmbH, Aidenbach, Germany). On the following day, the cells are loaded for 60 min at 37° C. with 2.13 μM Fluo-4 (Molecular Probes Europe BV, Leiden Holland) in HBSS buffer (Hank's buffered saline solution, Gibco Invitrogen GmbH, Karlsruhe, Germany) with 2.5 mM probenecid (Sigma-Aldrich, Taufkirchen, Germany) and 10 mM HEPES (Sigma-Aldrich, Taufkirchen, Germany). The plates are then washed 2× with HBSS buffer, and HBSS buffer which additionally contains 0.1% BSA (bovine serum albumin; Sigma-Aldrich, Taufkirchen, Germany), 5.6 mM glucose and 0.05% gelatine (Merck KGaA, Darmstadt, Germany) is added. After a further incubation of 20 minutes at room temperature, the plates are inserted into the FLIPR for the Ca^2+ measurement.
(§4) Alternatively, the plates are washed with buffer A (15 mM HEPES, 80 mM NaCl, 5 mM KCl, 1.2 mM CaCl2, 0.7 mM MgSO4, 2 g/l glucose, 2.5 mM probenecid), buffer A is added and the plates are loaded with 2.5 μM Fluo-4 and 0.025% Pluronic F127 (Sigma-Aldrich, Taufkirchen, Germany). Thereafter, the cells are washed 2× with buffer A and incubated for 30 minutes at room temperature with buffer A, which additionally contains 0.05% BSA and 0.05% gelatine, and thereafter inserted into the FLIPR for the Ca^2+ measurement.
(§5) The Ca^2+-dependent fluorescence is measured here before and after addition of substances (λex=488 nm, λem=540 nm). Quantification is by measurement of the highest fluorescence intensity (FC, fluorescence counts) over time.
(§6) The FLIPR protocol consists of 2 additions of substance. Test substances (10 μM) are first pipetted on to the cells and the Ca^2+ inflow is compared with the control (hB1R: Lys-Des-Arg^9-bradykinin>=50 nM; rB1R: Des-Arg^9-bradykinin 10 μM). This gives the result in % activation based on the Ca^2+ signal after addition of Lys-Des-Arg^9-bradykinin (>=50 nM) or Des-Arg^9-bradykinin (10 μM). After incubation for 10-20 minutes, Lys-Des-Arg^9-bradykinin (hB1R) or Des-Arg^9-bradykinin (rB1R) in the concentration of the EC80 is applied and the inflow of Ca^2+ is likewise determined. Antagonists lead to a suppression of the Ca^2+ inflow. % inhibition compared with the maximum achievable inhibition is calculated.
(§7) In order to determine the IC50 value, the substances are added in various concentrations. […]

[2] = target: T2, B1R receptor of the rat (rB1R) (Rattus norvegicus, UniProt P97583); assay: Functional investigation on the bradykinin receptor 1 (B1R), FLIPR Ca2+ assay, rB1R cells; type: cell-based
T2 construct: expressed in transfected cells; host or cells: CHO K1 cells
T2 sequence (P97583 1-337): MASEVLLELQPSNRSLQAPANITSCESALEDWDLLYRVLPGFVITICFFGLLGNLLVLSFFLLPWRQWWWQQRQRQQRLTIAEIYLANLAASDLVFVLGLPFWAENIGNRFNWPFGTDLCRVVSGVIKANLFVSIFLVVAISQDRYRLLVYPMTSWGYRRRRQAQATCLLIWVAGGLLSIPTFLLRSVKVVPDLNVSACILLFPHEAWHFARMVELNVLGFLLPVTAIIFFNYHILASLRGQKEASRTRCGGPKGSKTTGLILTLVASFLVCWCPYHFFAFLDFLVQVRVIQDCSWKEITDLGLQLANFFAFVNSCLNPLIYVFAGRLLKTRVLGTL
Protocol: as §1, §2, §3, §4, §5, §6, §7

Row | inhibition at 10 µM [1] [%] | inhibition at 10 µM [2] [%] | % Inhibition (human B1R) at 10 μM ([1]; 10 µM) [%] | % Inhibition (rat B1R) at 10 μM ([2]; 10 µM) [%] | SMILES
1 | 96 | 92 |  |  | Cc1cc(S(=O)(=O)N(C)Cc2nc3cccc(C(=O)N4CCC5(CC4)CCN(c4ccncc4)CC5)c3[nH]2)c(C)cc1Cl [I_CC-01, 4-chloro-N,2,5-trimethyl-N-[[7-(3-pyridin-4-yl-3,9-diazaspiro[5.5]undecane-9-carbonyl)-1H-benzoimidazol-2-yl]-methyl]-benzenesulfonic acid amide]
2 | 81 | 98 |  |  | COc1cc(C)c(S(=O)(=O)N(C)C(C)c2nc3cccc(C(=O)N4CCC5(CCN(Cc6ccccc6C#N)CC5)CC4)c3[nH]2)c(C)c1 (stereo not drawn) [I_CC-45, N-[1-[7-[9-[(2-Cyano-phenyl)-methyl]-3,9-diazaspiro[5.5]undecane-3-carbonyl]-1H-benzoimidazol-2-yl]-ethyl]-4-methoxy-N,2,6-trimethyl-benzenesulfonic acid amide]
3 | 63 | 92 |  |  | COc1cc(C)c(S(=O)(=O)N(C)C(C)c2nc3cccc(C(=O)N4CCC5(CC4)CCN(C(=O)c4cc(C(C)(C)C)nn4C)CC5)c3[nH]2)c(C)c1 (stereo not drawn) [I_CC-54, N-[1-[7-[9-(5-tert-Butyl-2-methyl-2H-pyrazole-3-carbonyl)-3,9-diazaspiro[5.5]undecane-3-carbonyl]-1H-benzoimidazol-2-yl]-ethyl]-4-methoxy-N,2,6-trimethyl-benzenesulfonic acid amide]
4 | 99 | 55 |  |  | COc1cc(C)c(S(=O)(=O)N(C)Cc2nc3cccc(CC(=O)N4CCC5(CC4)CCN(c4ccncc4)CC5)c3[nH]2)c(C)c1 [I_21, 4-methoxy-N,2,6-trimethyl-N-[[7-[2-oxo-2-(9-pyridin-4-yl-3,9-diazaspiro[5.5]undecan-3-yl)-ethyl]-1H-benzoimidazol-2-yl]-methyl]-benzenesulfonic acid amide]
5 | 94 | 90 |  |  | COc1cc(C)c(S(=O)(=O)N(C)C(C)c2nc3cccc(C(=O)N4CCC5(CC4)CCN(c4ccncc4)CC5)c3[nH]2)c(C)c1 (stereo not drawn) [I_06, 4-methoxy-N,2,6-trimethyl-N-[1-[7-(9-pyridin-4-yl-3,9-diazaspiro[5.5]undecane-3-carbonyl)-1H-benzoimidazol-2-yl]-ethyl]-benzenesulfonic acid amide]
6 | 97 | 49 |  |  | COc1cc(C)c(S(=O)(=O)N2CCCCC2c2nc3cccc(C(=O)N4CCC5(CC4)CCN(c4ccncc4)CC5)c3[nH]2)c(C)c1 (stereo not drawn) [I_18, [2-[1-[(4-methoxy-2,6-dimethyl-phenyl)sulfonyl]-piperidin-2-yl]-3H-benzoimidazol-4-yl]-(9-pyridin-4-yl-3,9-diazaspiro[5.5]undecan-3-yl)-methanone]
7 | 91 | 89 |  |  | COc1cc(C)c(S(=O)(=O)N(C)C(C)c2nc3cccc(C(=O)N4CCC5(CCN(Cc6ccccn6)CC5)CC4)c3[nH]2)c(C)c1 (stereo not drawn) [I_CC-26, 4-Methoxy-N,2,6-trimethyl-N-[1-[7-[9-(pyridin-2-yl-methyl)-3,9-diazaspiro[5.5]undecane-3-carbonyl]-1H-benzoimidazol-2-yl]-ethyl]-benzenesulfonic acid amide]
8 | 100 | 103 |  |  | COc1cc(C)c(S(=O)(=O)N(C)Cc2nc3cccc(CN4CCC5(CC4)CCN(c4ccncc4)CC5)c3[nH]2)c(C)c1 [I_15, 4-methoxy-N,2,6-trimethyl-N-[[7-[(9-pyridin-4-yl-3,9-diazaspiro[5.5]undecan-3-yl)-methyl]-1H-benzoimidazol-2-yl]-methyl]-benzenesulfonic acid amide]
9 | 100 | 101 |  |  | Cc1cccc(Cl)c1S(=O)(=O)N(C)Cc1nc2ccc(C(=O)N3CCC4(CC3)CCN(c3ccncc3)CC4)cc2[nH]1 [I_23, 2-chloro-N,6-dimethyl-N-[[6-(9-pyridin-4-yl-3,9-diazaspiro[5.5]undecane-3-carbonyl)-1H-benzoimidazol-2-yl]-methyl]-benzenesulfonic acid amide]
10 | 99 | 97 |  |  | COc1cc(C)c(S(=O)(=O)N(C)Cc2nc3cccc(C(=O)N4CCC5(CCC(N6CCC6)CC5)CC4)c3[nH]2)c(C)c1 [I_04, N-[[7-[9-(azetidin-1-yl)-3-azaspiro[5.5]undecane-3-carbonyl]-1H-benzoimidazol-2-yl]-methyl]-4-methoxy-N,2,6-trimethyl-benzenesulfonic acid amide]
11 |  |  | 98 | 96 | COc1cc(C)c(S(=O)(=O)N(C)Cc2nc3cccc(C(=O)N4CCC5(CC4)CCN(c4ccncc4)CC5)c3[nH]2)c(C)c1 [I_01, 4-methoxy-N,2,6-trimethyl-N-[[7-(9-pyridin-4-yl-3,9-diazaspiro[5.5]undecane-3-carbonyl)-1H-benzoimidazol-2-yl]-methyl]-benzenesulfonic acid amide]
12 | 63 | 104 |  |  | COc1cc(C)c(S(=O)(=O)N(C)C(C)c2nc3cccc(C(=O)N4CCC5(CCN(Cc6cc(F)ccc6F)CC5)CC4)c3[nH]2)c(C)c1 (stereo not drawn) [I_CC-31, N-[1-[7-[9-[(2,5-Difluoro-phenyl)-methyl]-3,9-diazaspiro[5.5]undecane-3-carbonyl]-1H-benzoimidazol-2-yl]-ethyl]-4-methoxy-N,2,6-trimethyl-benzenesulfonic acid amide]

Row | SMILES | inhibition at 10 µM [1] [%] | inhibition at 10 µM [2] [%] | % Inhibition (human B1R) at 10 μM ([1]; 10 µM) [%] | % Inhibition (rat B1R) at 10 μM ([2]; 10 µM) [%]
13 | COc1cc(C)c(S(=O)(=O)N(C)C(C)c2nc3cccc(C(=O)N4CCC5(CC4)CCN(S(=O)(=O)c4cccc6c4ccn6C)CC5)c3[nH]2)c(C)c1 (stereo not drawn) [I_CC-60, 4-Methoxy-N,2,6-trimethyl-N-[1-[7-[9-[(1-methyl-1H-indol-4-yl)sulfonyl]-3,9-diazaspiro[5.5]undecane-3-carbonyl]-1H-benzoimidazol-2-yl]-ethyl]-benzenesulfonic acid amide] |  | 101 |  | 
14 | COc1cc(C)c(S(=O)(=O)N(C)C(C)c2nc3cccc(C(=O)N4CCC5(CC4)CCN(C(=O)C4CC4)CC5)c3[nH]2)c(C)c1 (stereo not drawn) [I_CC-50, N-[1-[7-[9-(Cyclopropanecarbonyl)-3,9-diazaspiro[5.5]undecane-3-carbonyl]-1H-benzoimidazol-2-yl]-ethyl]-4-methoxy-N,2,6-trimethyl-benzenesulfonic acid amide] | 62 | 88 |  | 
